Data taken from patent US20250281489A1, “BIOMARKERS FOR PREDICTING SENSITIVITY TO CANCER TREATMENTS” (Genentech, Inc., priority 2011, published 2025).

Columns and labels:
pPRAS40 = test: reverse phase protein arrays of tumor biopsies from patients: pPRAS40; format: in vivo, human; conditions: all 3 patients treated at 400 mg daily
Method: (§1) Core-needle tumor biopsies from patients treated with GDCC0068 were flash-frozen in OCT and sectioned into 8 um slices. Tissue was lysed in RPPA lysis buffer containing TPER, 300 mM NaCl and phosphatase inhibitors. Phosphoprotein signatures of the lysates were analysed using Reverse-Phase protein arrays: samples were printed on nitrocellulose slides and stained with Sypro to determine total protein concentrations. Each slide was stained with a different antibody at 4° C. overnight. The data was then normalized to total protein levels and spatial effects were removed using Quadrant median normalization. Decreases of 60%-70% in pPRAS40 and ˜50% decrease in Cyclin D1 (compared with baseline) occurred in all 3 patients treated at 400 mg daily. For methods and overview of RPPA see: Reverse phase protein microarrays advance to use in clinical trials, Molecular Oncology. 2010 December; 4(6):461-81, Mueller C et al. In certain embodiments, the cancer to be treated herein comprises one or more of AKT, PI3k, PTEN and HER2 mutations or AKT, PI3k, PTEN or HER2 abberant signaling. In one example, the cancer is gastric cancer comprising high pAKT activity and PTEN low or null status.

[1] = tested on: cell lines with AKT pathway activation (PTEN loss, PI3K mutations); test: combination with MEK inhibitor in cell lines, BLISS analysis; format: cell-based; conditions: in combination with a MEK inhibitor (GDC-0973)
Description: BLISS analysis indicates broad synergy for GDC-0068 in combination with a MEK inhibitor (GDC-0973).

[2] = combo screens with 5FU/Cisplatin; format: cell-based; conditions: combination with Cisplatin+5FU; associated with PTEN, pAKT, PI3K mutation
Description: FIG. 15 depicts results that the combination effects of GDC-0068 with Cisplatin+5FU are associated with AKT pathway activation.

pGSK-3β = test: surrogate PD biomarker assay: phospho-GSK-3β in platelet rich plasma of patients; format: in vivo, human; conditions: doses≥200 mg, ratio to pre-dose
Method: Phospho-GSK-3b in Platelet rich plasma (PRP) was used as a surrogate PD biomarker to measure Akt pathway inhibition in patients after treatment with GDC-0068 at different time points over 22 days. Peripheral blood was collected in Vacutainer containing 0.38% of citrate as anti-coagulant. Blood was spun at 200 g for 15 min at room temperature. The PRP layer was carefully taken from the tube and then lysed in a buffer containing detergents, protease and phosphatase inhibitors. Phosphorylated and total GSK-3β levels in PRP lysates were measured using a phospho-GSK3β/total-GSK30 multiplexed MSD assay. pGSk-3β levels were normalized to total GSk-3β levels and post-dose inhibition of pGSk-3β was expressed as a ratio of the pre-dose levels for each patient.

Cyclin D1 = test: reverse phase protein arrays of tumor biopsies from patients: Cyclin D1; format: in vivo, human; conditions: all 3 patients treated at 400 mg daily
Method: as §1

xenograft models = test: single agent activity in xenograft models; format: in vivo; conditions: models with AKT pathway activation and without MEK pathway activation
[3] = tested on: mutant AKT1 enzymes (E17K, L52R and D323H); test: biochemical activity assay, recombinant full-length mutant AKT1 enzymes; conditions: in words
Description: (§2) Several ATP-competitive and allosteric small molecule inhibitors of AKT are in development and/or clinical trials (Mattmann et al., (2011). Expert Opin Ther Pat.; Pal et al., (2010). Expert Opin Investig Drugs 19, 1355-1366). Previous studies have shown that allosteric inhibitors of AKT require the presence of an intact PH-KD interface for their activity. Given that some AKT1 somatic mutants have impaired PH-KD contacts, it was predicted that allosteric inhibitors are likely to be less efficacious in inhibiting the activity of these mutants.

WT AKT1 enzyme = target: T1, WT AKT1 enzyme (Homo sapiens, UniProt P31749); test: biochemical activity assay, recombinant full-length WT AKT1 enzyme; conditions: in words
T1 construct: were tested on recombinant full-length WT and mutant AKT1 enzymes
T1 sequence (P31749 whole entry): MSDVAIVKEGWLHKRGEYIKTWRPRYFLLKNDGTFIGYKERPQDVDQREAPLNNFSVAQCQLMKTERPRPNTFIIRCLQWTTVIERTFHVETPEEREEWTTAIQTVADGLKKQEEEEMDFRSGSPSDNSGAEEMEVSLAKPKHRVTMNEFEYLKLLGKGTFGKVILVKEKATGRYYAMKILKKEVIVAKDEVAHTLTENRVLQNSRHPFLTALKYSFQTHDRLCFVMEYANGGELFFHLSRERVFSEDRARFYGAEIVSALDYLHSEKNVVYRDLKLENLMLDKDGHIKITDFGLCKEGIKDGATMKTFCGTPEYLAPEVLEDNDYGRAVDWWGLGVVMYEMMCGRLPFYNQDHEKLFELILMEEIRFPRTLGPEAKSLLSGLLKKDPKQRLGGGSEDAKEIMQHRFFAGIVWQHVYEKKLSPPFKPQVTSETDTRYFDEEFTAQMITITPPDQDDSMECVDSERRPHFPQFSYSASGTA
Description: Several ATP-competitive and allosteric small molecule inhibitors of AKT are in development and/or clinical trials (Mattmann et al., (2011). Expert Opin Ther Pat.; Pal et al., (2010). Expert Opin Investig Drugs 19, 1355-1366).

AKT1 kinase domain alone = target: T2, AKT1 kinase domain alone (Homo sapiens, UniProt P31749); test: in vitro biochemical assay, AKT1 kinase domain alone; conditions: purified recombinant kinase domain, no PH domain
T2 construct: using purified recombinant PH and kinase domains
T2 sequence (P31749 150-408 limits assumed): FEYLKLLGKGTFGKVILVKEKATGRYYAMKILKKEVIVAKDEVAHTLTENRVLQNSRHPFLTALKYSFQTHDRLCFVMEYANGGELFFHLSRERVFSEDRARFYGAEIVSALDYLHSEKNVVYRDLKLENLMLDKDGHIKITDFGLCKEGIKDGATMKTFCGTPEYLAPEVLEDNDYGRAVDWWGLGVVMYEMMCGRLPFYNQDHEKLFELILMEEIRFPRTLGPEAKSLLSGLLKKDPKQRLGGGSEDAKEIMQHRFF
Method: (§3) To confirm that the reduced sensitivity of the mutants to allosteric inhibitors was due to the impaired PH-KD interactions, an in vitro biochemical reconstitution assay was performed using purified recombinant PH and kinase domains.

[4] = target: T3, WT PH domain reconstituted with mutant D323H kinase domain (Homo sapiens, UniProt P31749, D323H); test: in vitro biochemical reconstitution assay, WT PH domain with D323H kinase domain; conditions: in words
T3 construct: using purified recombinant PH and kinase domains
T3 sequence (P31749 150-408 D323H limits assumed): as the sequence (P31749 150-408 limits assumed) above, with D174H counted along it
Method: as §3

[5] = tested on: AKT1 kinase domain reconstituted with WT PH domain; test: in vitro biochemical reconstitution assay, WT PH domain added to kinase domain
Method: as §3

[6] = tested on: NIH3T3 cells expressing WT or AKT1 mutants; test: cell based proliferation assay, NIH3T3 cells expressing WT or AKT1 mutants
Description: as §2

Structure (SMILES): CC(C)NC[C@@H](C(=O)N1CCN(c2ncnc3c2[C@H](C)C[C@H]3O)CC1)c1ccc(Cl)cc1 [GDC-0068]
- decrease in pPRAS40 compared with baseline (pPRAS40): 60%-70%
- combination effect, BLISS analysis [1]: broad synergy
- combination effect [2]: additive effects
- decrease in pGSK3β level (pGSK-3β): ≥ 75%
- decrease in Cyclin D1 compared with baseline (Cyclin D1): ~50%
- single agent efficacy in xenograft models (xenograft models): Robust efficacy

Structure (SMILES): NC(=O)[C@@H]1CCCCN1CCCN(C(=O)c1cccs1)c1nc(-c2ccncc2)cs1 [GNE-929]
- effectiveness against recombinant full-length mutant enzymes compared to WT AKT1 [3]: less effective

Structure (SMILES): CCn1c(-c2nonc2N)nc2c(C#CC(C)(C)O)ncc(OC[C@H]3CCCNC3)c21 [GSK690693]
- blocking the activity of the mutant enzymes ([3]; E17K, L52R and D323H): effective
- blocking the activity of the WT AKT1 enzyme (WT AKT1 enzyme): effective

Structure (SMILES): O=c1[nH]c2ccccc2n1C1CCN(Cc2ccc(-c3nc4cc5[nH]cnc5cc4nc3-c3ccccc3)cc2)CC1 [Inhibitor VIII]
- blocking activity of AKT1 kinase domain alone (AKT1 kinase domain alone): unable to block its activity
- activity when WT PH domain was reconstituted with mutant D323H kinase domain [4]: no activity
- increase in IC50 for the reconstituted enzyme compared to the full length WT enzyme [5]: three fold
- IC50 ([5]; reconstituted enzyme, WT PH domain + kinase domain): 239 nM
- less effective at blocking proliferation of cells expressing mutant AKT1 compared to WT AKT [6]: at least 50%
